Results on six compounds are retold here after US20240182531A1, “KV1.3 Blockers” (priority 2021, published 2024).

Molecules are shown by their SMILES. Where two headings read alike, the source gives them in different places. Where a SMILES comes first, the peptide text is derived from it. Bridges are numbered along the chain shown (N, C = ends). [ ]: non-standard residue; d: D form. Nle = CCCC[C@H](N)C(=O)O

The target of experiment [1] is T1, human Kv1.3 voltage-gated K+ channel (Homo sapiens, UniProt P22001).
T1 construct: host or cells: CHO-DUKX
T1 sequence (P22001 whole entry): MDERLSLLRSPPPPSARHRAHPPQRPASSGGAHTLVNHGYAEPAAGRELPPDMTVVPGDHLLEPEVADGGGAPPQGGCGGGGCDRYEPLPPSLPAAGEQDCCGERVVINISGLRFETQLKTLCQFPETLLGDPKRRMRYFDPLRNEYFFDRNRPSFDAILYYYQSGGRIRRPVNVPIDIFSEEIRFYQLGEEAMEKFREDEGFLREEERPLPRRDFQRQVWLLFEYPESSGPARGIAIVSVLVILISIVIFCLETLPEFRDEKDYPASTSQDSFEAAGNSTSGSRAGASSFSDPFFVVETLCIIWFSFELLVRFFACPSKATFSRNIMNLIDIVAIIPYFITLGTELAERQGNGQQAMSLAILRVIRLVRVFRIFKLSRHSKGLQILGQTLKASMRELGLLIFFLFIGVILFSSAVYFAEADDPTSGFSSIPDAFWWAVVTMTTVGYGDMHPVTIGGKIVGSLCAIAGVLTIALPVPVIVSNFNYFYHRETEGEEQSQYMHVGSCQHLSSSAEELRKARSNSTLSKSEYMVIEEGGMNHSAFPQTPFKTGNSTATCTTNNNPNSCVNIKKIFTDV
Nature of the experiment: Kv1.3 blocker activity in FLIPR thallium assay. It counts as cell-based. How it is done: A human Kv1.3 voltage-gated K+ channel cell line was purchased from Perkin Elmer (#TDS-AX-010-C-1). The cell line is based on CHO-DUKX cells stably transfected with the human Kv1.3 voltage-gated K+ channel.
The cell line was grown in MEMα with nucleotides, GlutaMAX (Gibco #32571028), 10% Foetal Bovine Serum (FBS), 0.4 mg/ml Geneticin, 100 units/ml Penicillin, and 100 μg/ml Streptomycin and seeded at 10.000 cells/well in black poly-D-lysine-coated 96 well plates.
The FluxOR™ Potassium Ion Channel Assay (Invitrogen #F10016) was used to quantitate flux of thallium ions into the cells as a response to Kv1.3 activation with a stimulus buffer causes depolarization of the cell membrane, thereby generating a fluorescent signal, proportional to channel activity. The assay was performed as described by the assay kit manufacturer including a compound pre-incubation step (30 min, 37° C., 5% CO2) in assay buffer containing 0.02% W/v casein from bovine milk (Sigma #C4765) prior to cell membrane depolarization using a final stimuli buffer composition corresponding to 0.2× FluxOR™ chloride-free buffer, 5 mM K2SO4, 1 mM Tl2SO4. The fluorescence responses were recorded and quantified (maximum response at 50 s, 37° C.) using the FLIPR® Tetra High Throughput Screening System (Molecular Devices, Inc.).
IC50 can be regarded as a measure of potency of inhibition for the respective compound. The IC50 value is a measure of the concentration of an inhibitor required to achieve half of that compound's maximal inhibition of ion channel activity in a given assay.

The target in the next experiment is T2, human Kv1.6 (Homo sapiens, UniProt P17658).
T2 construct: expressed in transfected cells; host or cells: CHO
T2 sequence (P17658 whole entry): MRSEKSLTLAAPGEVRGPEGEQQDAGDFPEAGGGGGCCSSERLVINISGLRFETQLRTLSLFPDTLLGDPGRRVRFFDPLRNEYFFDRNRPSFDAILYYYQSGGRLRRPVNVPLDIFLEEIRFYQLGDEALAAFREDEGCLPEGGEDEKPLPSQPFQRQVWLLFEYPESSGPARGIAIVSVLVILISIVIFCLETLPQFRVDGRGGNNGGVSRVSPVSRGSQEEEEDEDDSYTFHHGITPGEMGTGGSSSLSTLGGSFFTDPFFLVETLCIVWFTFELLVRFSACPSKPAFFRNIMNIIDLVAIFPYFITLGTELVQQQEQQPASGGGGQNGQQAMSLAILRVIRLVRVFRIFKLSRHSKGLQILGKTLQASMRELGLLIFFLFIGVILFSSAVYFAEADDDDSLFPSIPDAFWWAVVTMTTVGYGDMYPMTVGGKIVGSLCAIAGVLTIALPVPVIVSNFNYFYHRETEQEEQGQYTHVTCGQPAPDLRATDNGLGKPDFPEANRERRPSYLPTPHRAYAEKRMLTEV
Nature of the experiment: cell-based.

The next experiment addresses T3, human Kv1.2 (Homo sapiens, UniProt P16389).
T3 construct: expressed in transfected cells; host or cells: CHO
Nature of the experiment: cell-based.

The target in a further experiment is T4, human Kv1.1 (Homo sapiens, UniProt Q09470).
T4 construct: expressed in transfected cells; host or cells: CHO
T4 sequence (Q09470 whole entry): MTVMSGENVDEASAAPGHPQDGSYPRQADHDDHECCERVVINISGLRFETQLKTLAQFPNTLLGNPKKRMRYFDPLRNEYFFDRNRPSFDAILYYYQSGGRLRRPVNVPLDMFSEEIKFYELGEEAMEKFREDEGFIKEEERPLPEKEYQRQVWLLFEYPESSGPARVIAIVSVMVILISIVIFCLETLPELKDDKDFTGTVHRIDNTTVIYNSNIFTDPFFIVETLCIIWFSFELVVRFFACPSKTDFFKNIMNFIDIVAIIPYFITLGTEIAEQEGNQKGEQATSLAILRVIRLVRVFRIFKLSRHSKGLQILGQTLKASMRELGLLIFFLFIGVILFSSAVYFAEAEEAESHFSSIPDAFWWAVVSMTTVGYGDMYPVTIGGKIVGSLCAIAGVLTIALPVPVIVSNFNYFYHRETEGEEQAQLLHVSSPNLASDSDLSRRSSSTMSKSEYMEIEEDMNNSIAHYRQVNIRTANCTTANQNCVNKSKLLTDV
Nature of the experiment: cell-based.

Experiment [2] relates to KLH ear inflammation model in rats. Format: in vivo, rat.
The next experiment concerns the target Rat whole blood (Rattus norvegicus, UniProt P15384). It counts as cell-based.
[3] abbreviates: ratio of patch clamp IC50 values.
Setting [4] is: 100 nmol/kg SC 24 hrs prior to KLH ear challenge, +/− SD.
Setting [5] is: IL-17A release, thapsigargin, 24 Hr, at least 2 replicates.

T3 sequence (P16389 whole entry): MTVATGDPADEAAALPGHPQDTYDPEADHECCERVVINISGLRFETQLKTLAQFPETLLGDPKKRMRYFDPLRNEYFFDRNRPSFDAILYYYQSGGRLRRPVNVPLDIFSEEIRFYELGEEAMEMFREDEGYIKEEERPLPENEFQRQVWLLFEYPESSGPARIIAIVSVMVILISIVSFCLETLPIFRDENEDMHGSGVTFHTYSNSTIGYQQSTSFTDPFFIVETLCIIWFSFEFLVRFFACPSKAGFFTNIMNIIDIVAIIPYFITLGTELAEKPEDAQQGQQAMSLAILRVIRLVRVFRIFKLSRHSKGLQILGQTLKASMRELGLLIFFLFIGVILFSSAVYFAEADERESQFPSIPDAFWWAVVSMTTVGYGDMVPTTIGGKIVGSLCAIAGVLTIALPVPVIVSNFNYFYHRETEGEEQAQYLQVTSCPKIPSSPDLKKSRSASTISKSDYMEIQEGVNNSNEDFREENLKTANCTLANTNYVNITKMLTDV
Rat whole blood, sequence (P15384 whole entry): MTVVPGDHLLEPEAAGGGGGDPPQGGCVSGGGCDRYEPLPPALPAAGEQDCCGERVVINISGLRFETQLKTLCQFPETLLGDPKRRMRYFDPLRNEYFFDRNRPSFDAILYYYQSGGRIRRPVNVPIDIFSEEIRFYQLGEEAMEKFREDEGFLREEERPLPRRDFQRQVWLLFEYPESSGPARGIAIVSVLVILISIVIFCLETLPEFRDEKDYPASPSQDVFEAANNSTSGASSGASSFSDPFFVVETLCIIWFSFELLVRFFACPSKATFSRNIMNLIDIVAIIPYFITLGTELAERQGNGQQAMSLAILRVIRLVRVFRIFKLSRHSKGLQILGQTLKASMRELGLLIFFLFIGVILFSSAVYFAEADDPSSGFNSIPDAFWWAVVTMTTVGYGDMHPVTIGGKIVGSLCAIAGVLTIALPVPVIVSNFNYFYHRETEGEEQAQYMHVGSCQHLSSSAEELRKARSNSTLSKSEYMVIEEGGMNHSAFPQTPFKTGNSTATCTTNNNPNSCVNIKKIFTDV

Regarding `CCCC[C@H](NC(=O)[C@@H]1CCCN1)C(=O)N[C@@H](CCC(=O)O)C(=O)N[C@@H](CCCC)C(=O)N[C@@H](CCCNC(=N)N)C(=O)N[C@H]1CSSC[C@@H]2NC(=O)[C@H](CCCCN)NC(=O)CNC(=O)[C@H](Cc3ccccc3)NC(=O)[C@H]([C@@H](C)CC)NC(=O)[C@H](CO)NC(=O)CNC(=O)[C@H]([C@@H](C)CC)NC(=O)[C@H](C)NC(=O)[C@H](C)NC(=O)[C@H](CC(C)C)NC(=O)[C@@H]3CSSC[C@@H](C(=O)N[C@@H](Cc4ccc(O)cc4)C(=O)N4CCC[C@H]4C(=O)N[C@@H](CCCNC(=N)N)C(N)=O)NC(=O)[C@H](CCCCN)NC(=O)[C@H](CSSC[C@H](NC(=O)[C@H](CCC(=O)O)NC(=O)[C@H](C(C)C)NC(=O)[C@H](CO)NC(=O)[C@H](C)NC(=O)[C@H](CCCNC(=N)N)NC1=O)C(=O)N[C@@H](C)C(=O)N[C@@H](CCC(N)=O)C(=O)N[C@@H](CO)C(=O)N3)NC(=O)[C@H](CCCCN)NC(=O)CNC(=O)[C@H](CC(N)=O)NC(=O)[C@H](CCCC)NC2=O` [compound 11] (H-P[Nle]E[Nle]RCRASVECAQSCLAAIGSIFGKC[Nle]NGKCKCYPR-NH2; disulfide 6-27, 12-32, 16-34), in experiment [1], 0.22 nM corresponded to half-maximal inhibition (IC50).

Take `CCCC[C@H](NC(=O)[C@@H]1CCCN1)C(=O)N[C@@H](CCC(=O)O)C(=O)N[C@@H](CCCC)C(=O)N[C@@H](CCCNC(=N)N)C(=O)N[C@H]1CSSC[C@@H]2NC(=O)[C@H](CCCCN)NC(=O)CNC(=O)[C@H](Cc3ccccc3)NC(=O)[C@H]([C@@H](C)CC)NC(=O)[C@H](CO)NC(=O)CNC(=O)[C@H]([C@@H](C)CC)NC(=O)[C@H](C)NC(=O)[C@H](C)NC(=O)[C@H](CC(C)C)NC(=O)[C@@H]3CSSC[C@@H](C(=O)N[C@@H](Cc4ccc(O)cc4)C(=O)N4CCC[C@H]4C(=O)N[C@@H](CCCNC(=N)N)C(N)=O)NC(=O)[C@H](CCCCN)NC(=O)[C@H](CSSC[C@H](NC(=O)[C@H](CCC(=O)O)NC(=O)[C@H](CCCNC(=N)N)NC(=O)[C@H](CO)NC(=O)[C@H](C)NC(=O)[C@H](CO)NC1=O)C(=O)N[C@@H](C)C(=O)N[C@@H](CCC(N)=O)C(=O)N[C@@H](CO)C(=O)N3)NC(=O)[C@H](CCCCN)NC(=O)CNC(=O)[C@H](CC(N)=O)NC(=O)[C@H](CCCC)NC2=O` [compound 12] (H-P[Nle]E[Nle]RCSASRECAQSCLAAIGSIFGKC[Nle]NGKCKCYPR-NH2; disulfide 6-27, 12-32, 16-34): in experiment [1], the half-maximal inhibitory concentration (IC50) came to 0.45 nM.

For the compound `CC[C@H](C)[C@@H]1NC(=O)[C@H](C)NC(=O)[C@H](C)NC(=O)[C@H](CC(C)C)NC(=O)[C@@H]2CSSC[C@@H](C(=O)N[C@@H](Cc3ccc(O)cc3)C(=O)N3CCC[C@H]3C(=O)N[C@@H](CCCNC(=N)N)C(N)=O)NC(=O)[C@H](CCCCN)NC(=O)[C@@H]3CSSC[C@H](NC(=O)[C@H](CCC(=O)O)NC(=O)[C@H](C(C)C)NC(=O)[C@H](CO)NC(=O)[C@H](C)NC(=O)[C@H](CO)NC(=O)[C@@H](NC(=O)[C@H](CCCNC(=N)N)NC(=O)[C@H](CCSC)NC(=O)[C@H](CC(=O)O)NC(=O)[C@H](CCSC)NC(=O)[C@@H](N)CC(N)=O)CSSC[C@H](NC(=O)[C@H](CCCCN)NC(=O)CNC(=O)[C@H](Cc4ccccc4)NC(=O)[C@H]([C@@H](C)CC)NC(=O)[C@H](CO)NC(=O)CNC1=O)C(=O)N[C@@H](CCSC)C(=O)N[C@@H](CC(N)=O)C(=O)N[C@@H](CCCCN)C(=O)N[C@@H](CCCCN)C(=O)N3)C(=O)N[C@@H](CCCCN)C(=O)N[C@@H](CCC(N)=O)C(=O)N[C@@H](CCCCN)C(=O)N2` [compound 56] (H-NMDMRCSASVECKQKCLAAIGSIFGKCMNKKCKCYPR-NH2; disulfide 6-27, 12-32, 16-34), at human Kv1.6 (setting [3]), the “Selectivity ratio Kv1.6/Kv1.3” value is >27500. The “Selectivity ratio Kv1.2/Kv1.3” value on human Kv1.2 (setting [3]) was found to be 803. Further, the “Selectivity ratio Kv1.1/Kv1.3” value at human Kv1.1 (setting [3]) is reported as >27500. Also, the “% inhibition of ear thickness (AUC of Δ ear thickness 0-48 hours)” value in experiment [2] (setting [4]) is 25.1 (+/−6.3) %. In addition, the IC50 against Rat whole blood (setting [5]) came to 0.69 nM.

Consider `CCCC[C@@H]1NC(=O)[C@@H]2CSSC[C@H](NC(=O)[C@H](CCCNC(=N)N)NC(=O)[C@H](CCCC)NC(=O)[C@H](CC(=O)O)NC(=O)[C@@H](NC(=O)[C@@H](N)CC(N)=O)[C@@H](C)CC)C(=O)N[C@@H](CO)C(=O)N[C@@H](C)C(=O)N[C@@H](CO)C(=O)N[C@@H](C(C)C)C(=O)N[C@@H](CCC(=O)O)C(=O)N[C@H]3CSSC[C@H](NC(=O)[C@H](CCCCN)NC(=O)[C@H](CCCCN)NC(=O)[C@H](CC(N)=O)NC1=O)C(=O)N[C@@H](CCCCN)C(=O)N[C@H](C(=O)N[C@@H](Cc1ccc(O)cc1)C(=O)N1CCC[C@H]1C(=O)N[C@@H](CCCNC(=N)N)C(=O)O)CSSC[C@H](NC(=O)[C@H](CCCCN)NC(=O)[C@H](CCC(N)=O)NC(=O)[C@H](CCCCN)NC3=O)C(=O)N[C@@H](CC(C)C)C(=O)N[C@@H](CCCCN)C(=O)N[C@@H](C)C(=O)N[C@@H]([C@@H](C)CC)C(=O)NCC(=O)N[C@@H](CO)C(=O)N[C@@H]([C@@H](C)CC)C(=O)N[C@@H](Cc1ccccc1)C(=O)NCC(=O)N[C@@H](CCCCN)C(=O)N2` [compound 91] (H-NID[Nle]RCSASVECKQKCLKAIGSIFGKC[Nle]NKKCKCYPR-OH; disulfide 6-27, 12-32, 16-34), for which, on human Kv1.6 (setting [3]), the “Selectivity ratio Kv1.6/Kv1.3” value was >11300. On human Kv1.2 (setting [3]), the “Selectivity ratio Kv1.2/Kv1.3” value came to 7756. For the same compound, the “Selectivity ratio Kv1.1/Kv1.3” value on human Kv1.1 (setting [3]) is reported as >11300. Also, in experiment [2] (setting [4]), the “% inhibition of ear thickness (AUC of Δ ear thickness 0-48 hours)” value was determined as 39.6%. The compound also yielded an IC50 against Rat whole blood (setting [5]) of 1.2 nM.

For the compound `CCCC[C@@H]1NC(=O)[C@@H]2CSSC[C@H](NC(=O)[C@H](CCCNC(=N)N)NC(=O)[C@H](CCCC)NC(=O)[C@H](CCC(=O)O)NC(=O)[C@@H](NC(=O)[C@@H]3CCCN3)[C@@H](C)CC)C(=O)N[C@@H](CO)C(=O)N[C@@H](C)C(=O)N[C@@H](CO)C(=O)N[C@@H](C(C)C)C(=O)N[C@@H](CCC(=O)O)C(=O)N[C@H]3CSSC[C@H](NC(=O)[C@H](CCCCN)NC(=O)[C@H](CCCCN)NC(=O)[C@H](CC(N)=O)NC1=O)C(=O)N[C@@H](CCCCN)C(=O)N[C@H](C(=O)N[C@@H](Cc1ccc(O)cc1)C(=O)N1CCC[C@H]1C(=O)N[C@@H](CCCNC(=N)N)C(=O)O)CSSC[C@H](NC(=O)[C@H](CCCCN)NC(=O)[C@H](CCC(N)=O)NC(=O)[C@H](CCCCN)NC3=O)C(=O)N[C@@H](CC(C)C)C(=O)N[C@@H](C)C(=O)N[C@@H](C)C(=O)N[C@@H]([C@@H](C)CC)C(=O)NCC(=O)N[C@@H](CO)C(=O)N[C@@H]([C@@H](C)CC)C(=O)N[C@@H](Cc1ccccc1)C(=O)NCC(=O)N[C@@H](CCCCN)C(=O)N2` [compound 95] (H-PIE[Nle]RCSASVECKQKCLAAIGSIFGKC[Nle]NKKCKCYPR-OH; disulfide 6-27, 12-32, 16-34), the “Selectivity ratio Kv1.6/Kv1.3” value at human Kv1.6 is >8600. For the same compound, the “Selectivity ratio Kv1.2/Kv1.3” value on human Kv1.2 came out at 5630. Also, the “Selectivity ratio Kv1.1/Kv1.3” value on human Kv1.1 was >8600. Further, the “% inhibition of ear thickness (AUC of Δ ear thickness 0-48 hours)” value in experiment [2] (rat, in vivo) is on record as 44.5%. The compound further yielded a half-maximal inhibitory concentration (IC50) against Rat whole blood of 0.61 nM.

Turning to `CCCC[C@H](NC(=O)[C@@H]1CCCN1)C(=O)N[C@@H](CCC(=O)O)C(=O)N[C@@H](CCCC)C(=O)N[C@@H](CCCNC(=N)N)C(=O)N[C@H]1CSSC[C@@H]2NC(=O)[C@H](CCCCN)NC(=O)CNC(=O)[C@H](Cc3ccccc3)NC(=O)[C@H]([C@@H](C)CC)NC(=O)[C@H](CO)NC(=O)CNC(=O)[C@H]([C@@H](C)CC)NC(=O)[C@H](C)NC(=O)[C@H](C)NC(=O)[C@H](CC(C)C)NC(=O)[C@@H]3CSSC[C@@H](C(=O)N[C@@H](Cc4ccc(O)cc4)C(=O)N4CCC[C@H]4C(=O)N[C@@H](CCCNC(=N)N)C(=O)O)NC(=O)[C@H](CCCCN)NC(=O)[C@H](CSSC[C@H](NC(=O)[C@H](CCC(=O)O)NC(=O)[C@H](C(C)C)NC(=O)[C@H](CO)NC(=O)[C@H](C)NC(=O)[C@H](CO)NC1=O)C(=O)N[C@@H](C)C(=O)N[C@@H](CCC(N)=O)C(=O)N[C@@H](CCCCN)C(=O)N3)NC(=O)[C@H](CCCCN)NC(=O)[C@H](CCCCN)NC(=O)[C@H](CC(N)=O)NC(=O)[C@H](CCCC)NC2=O` [compound 97] (H-P[Nle]E[Nle]RCSASVECAQKCLAAIGSIFGKC[Nle]NKKCKCYPR-OH; disulfide 6-27, 12-32, 16-34), the “Selectivity ratio Kv1.6/Kv1.3” value on human Kv1.6 (setting [3]) is recorded as >5500. Further, the “Selectivity ratio Kv1.2/Kv1.3” value on human Kv1.2 (setting [3]) was 5500. For the same compound, on human Kv1.1 (setting [3]), the “Selectivity ratio Kv1.1/Kv1.3” value is >5500. In addition, the “% inhibition of ear thickness (AUC of Δ ear thickness 0-48 hours)” value in experiment [2] (setting [4]) was determined as 48.9%. In addition, at Rat whole blood (setting [5]), 1.2 nM corresponded to half-maximal inhibition (IC50).
